Measurements as given in ChEMBL document CHEMBL1201862, “PubChem BioAssay data set” (2004).
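How tested: cells in 96-well plates exposed to compound for 48 hours at five concentrations. GI50: concentration for 50% inhibition of growth.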 Calls of active or inactive are those of the source. Cut-off read from the data, not from the text of the source: active = GI50 up to about 1.1 µM and inactive = higher.

Experiments:
Experiment in all cases: NCI anticancer screen, dose series, 48 h
OVCAR-4 = system: OVCAR-4
786-0 = system: 786-0
HL-60 = system: HL-60
OVCAR-8 = system: OVCAR-8
RXF 393 = system: RXF 393
NCI-H460 = system: NCI-H460
UO-31 = system: UO-31
LOX IMVI = system: LOX IMVI
RPMI-8226 = system: RPMI-8226
U-251 = system: U-251
CCRF-CEM = system: CCRF-CEM
Malme-3M = system: Malme-3M
SNB-75 = system: SNB-75
SW-620 = system: SW-620
HCC 2998 = system: HCC 2998
SF-539 = system: SF-539
IGROV-1 = system: IGROV-1

Measured: GI50

CC(=O)O[C@]12CCCCCC1C1(O)C(O)CCC[C@H]12 (some centres undefined)
inactive: OVCAR-4 > 100 µM | 786-0 > 100 µM | HL-60 > 100 µM | OVCAR-8 > 100 µM | RXF 393 > 100 µM | NCI-H460 > 100 µM | UO-31 > 100 µM | LOX IMVI > 100 µM | RPMI-8226 > 100 µM | U-251 > 100 µM | CCRF-CEM > 100 µM | Malme-3M > 100 µM | SNB-75 > 100 µM | SW-620 > 100 µM

CC1(c2ccccc2Cl)C(C#N)C(=O)NC(=O)C1C#N (centres undefined)
inactive: OVCAR-4 33.3 µM | 786-0 45.6 µM | HL-60 21.6 µM | OVCAR-8 35.6 µM | RXF 393 27.9 µM | HCC 2998 41.3 µM | NCI-H460 36.6 µM | UO-31 27.5 µM | LOX IMVI 40.1 µM | SF-539 34.8 µM | RPMI-8226 22.7 µM | CCRF-CEM 30.1 µM | IGROV-1 64.1 µM | Malme-3M 35.5 µM | SNB-75 24.8 µM | SW-620 43.8 µM

COc1cccc(/C=C(\NC(C)=O)c2nc3cc(Cl)ccc3[nH]2)c1
inactive: OVCAR-4 > 100 µM | 786-0 > 100 µM | OVCAR-8 > 100 µM | RXF 393 > 100 µM | HCC 2998 > 100 µM | UO-31 > 100 µM | SF-539 > 100 µM | U-251 > 100 µM | CCRF-CEM > 100 µM | IGROV-1 > 100 µM | Malme-3M > 100 µM | SW-620 > 100 µM

CSc1snc2sc3c(Cl)nnnc3c12
inactive: OVCAR-4 14.8 µM | 786-0 15.9 µM | OVCAR-8 7.46 µM | RXF 393 12.3 µM | HCC 2998 6.01 µM | NCI-H460 15.8 µM | UO-31 13 µM | LOX IMVI 3.12 µM | SF-539 17.8 µM | RPMI-8226 15.6 µM | U-251 15.1 µM | CCRF-CEM 2.12 µM | IGROV-1 18.3 µM | Malme-3M 11.4 µM | SNB-75 11.5 µM | SW-620 3.8 µM

CC(=O)/C(=C\c1cccc([N+](=O)[O-])c1)C(=O)Nc1ccccc1C
inactive: OVCAR-4 56.4 µM | 786-0 > 100 µM | HL-60 20.2 µM | OVCAR-8 > 10 µM | RXF 393 > 100 µM | HCC 2998 75.5 µM | NCI-H460 > 100 µM | UO-31 > 100 µM | LOX IMVI 60.1 µM | SF-539 > 100 µM | RPMI-8226 42.8 µM | U-251 91.2 µM | CCRF-CEM 31.2 µM | IGROV-1 > 100 µM | Malme-3M > 100 µM | SW-620 > 100 µM

O=C(COc1ccc2c(=O)cc(-c3ccccc3)oc2c1)N1CCN(c2ccccc2)CC1
inactive: 786-0 41 µM | HL-60 15.8 µM | OVCAR-8 26.4 µM | RXF 393 16.7 µM | HCC 2998 33.1 µM | NCI-H460 31.8 µM | UO-31 19.8 µM | LOX IMVI 57.3 µM | SF-539 71.1 µM | RPMI-8226 14.2 µM | U-251 38.5 µM | CCRF-CEM 24.7 µM | IGROV-1 > 100 µM | Malme-3M 51.6 µM | SNB-75 27.5 µM | SW-620 83.8 µM

COc1ccc(/C=c2/sc3n(c2=O)NC2(CCC(C)CC2)NN=3)cc1 (centres undefined)
inactive: OVCAR-4 52.5 µM | 786-0 > 100 µM | OVCAR-8 > 100 µM | RXF 393 > 100 µM | HCC 2998 > 100 µM | NCI-H460 > 100 µM | UO-31 > 100 µM | LOX IMVI > 100 µM | SF-539 > 100 µM | U-251 > 100 µM | CCRF-CEM > 100 µM | IGROV-1 > 100 µM | Malme-3M > 100 µM | SNB-75 > 100 µM | SW-620 > 100 µM

COc1ccc([Se]c2ccc(OC)cc2OC)c(OC)c1
inactive: OVCAR-4 21.9 µM | 786-0 40.5 µM | HL-60 5.38 µM | OVCAR-8 33.6 µM | RXF 393 18.2 µM | NCI-H460 19.6 µM | UO-31 18 µM | LOX IMVI 24.6 µM | SF-539 22.6 µM | RPMI-8226 20.7 µM | U-251 21.6 µM | CCRF-CEM 20.2 µM | IGROV-1 5.37 µM | Malme-3M 14.9 µM | SNB-75 9.02 µM | SW-620 4.66 µM

O=c1c2cccnc2ncn1CCCN1CCCC1
inactive: OVCAR-4 > 100 µM | 786-0 > 100 µM | OVCAR-8 > 100 µM | RXF 393 > 100 µM | NCI-H460 > 100 µM | UO-31 > 100 µM | LOX IMVI > 100 µM | SF-539 > 100 µM | U-251 > 100 µM | CCRF-CEM > 100 µM | IGROV-1 > 100 µM | SNB-75 > 100 µM | SW-620 > 100 µM
